In one assay the target is T1, PI3Kγ (Homo sapiens, UniProt P48736).
T1 construct: host or cells: THP-1
As to the kind of experiment: PI3Kγ cellular assay in THP-1 cells (AKT pS473 AlphaLISA). The format is cell-based. As for the experimental part: Twenty microliters of serum starved THP-1 cells were added to the compound plate in serum free DMEM at a density of 9×10^6 cells per ml. Final assay conditions comprised 1.8×10^5 THP-1 cells per well with test compounds in 2% DMSO across a concentration range from 4 nM to 30 μM. […] Briefly, 10 μL of 4× lysis buffer was added to cells after stimulation. Following 60 min incubation at rt, 10 μL of cell lysate was transferred to a fresh 384-well Opti-plate to which 5 μL of AlphaLisa acceptor beads and 5 μL of AlphaLisa donor beads had been added. […] PI3Kγ activity was evaluated as a correlate of endogenous AKT phosphorylation levels. Percentage maximum activity in each test well was calculated based on DMSO (100% activity) and positive control treated cell wells (0% activity). The potencies (IC50's) of test compounds were determined using a standard 4-parameter fit non-linear regression fit.

In another assay the target is T2, PI3Kγ (p120γ) (Homo sapiens, UniProt P48736).
T2 construct: purchased Promega V1761
As to the kind of experiment: Inhibition of PI3K kinase activity (ADP Glo), PI3Kγ. The settings on record: read-out: biochemical potency (PI3Kγ IC50). As for the experimental part:
Compounds were evaluated to determine the potency with which they inhibited the kinase activity of the Class I PI3K subunits p110α/p85α (Promega, Cat #V1721), p110β/p85α (Promega, Cat #V1751), p120γ (Promega, Cat #V1761) and p110δ/p85α (Promega, Cat #V1771). Activity was determined as a function of ADP (adenosine diphosphate) generated from ATP consumed during the phosphorylation of Phosphatidylinositol 4,5-bisphosphate (PIP2) (Promega, Cat #V1701) to yield Phosphatidylinositol (3,4,5)-trisphosphate (PIP3). ADP levels in the assay mixture at the end of the reaction were quantitated using ADP Glo (Promega, Cat #V9103) according to the manufacturer's recommended protocol.
Enzyme was prepared for each of the PI3K subunits in 100 mM HEPES, pH 7.4, 100 mM NaCl, 6 mM MgCl2 and 0.05% BSA. p110α/p85α was prepared at 2 nM (2×), p110β/p85α was prepared at 7 nM (2×), p120γ was prepared at 8 nM (2×) and p110δ/p85α was prepared at 2 nM (2×). Five microliters of 2× enzyme dilution of each PI3K subunit were added to a 384-well white Opti-plates pre-dispensed with compound and allowed to incubate for 1 h at rt. A substrate mix containing 0.1 mg/ml (2×) of PIP2 and 50 μM (2×) ATP (Promega, Cat #V915) was prepared in 25 mM HEPES and 0.5 mM EGTA. Reactions were initiated by addition of 5 μl of 2× substrate mix to each well of the plates containing various PI3K isoforms and allowed to proceed for 60 min at rt. Ten microliters of ADP Glo reagent 1 were added to the wells of each plate and allowed to incubate at rt for 45 min according to the manufacturer's directions. Following incubation, 20 μl of ADP Glo reagent 2 was added to each plate and allowed to incubate for an additional 45 min. Luminescent signal, generated by ADP Glo, was quantified by reading on a Perkin Elmer Envision multimode reader. Compound potencies (IC50's) were determined using a standard 4-parameter fit non-linear regression fit.

Setting [1] is: Table 2, rhMCP-1 stimulated AKT pS473, read-out: cellular potency (PI3Kγ IC50).
[2] abbreviates: Table 1, rhMCP-1 stimulated AKT pS473, read-out: cellular potency (PI3Kγ IC50).
Where [3] appears, read: Table 6, rhMCP-1 stimulated AKT pS473, read-out: cellular potency (PI3Kγ IC50).
Setting [4] is: AKT pS473, read-out: cellular potency (PI3Kγ IC50).
[5] abbreviates: Table 3, rhMCP-1 stimulated AKT pS473, read-out: cellular potency (PI3Kγ IC50).

Structures are written as SMILES. Where two headings read alike, the source gives them in different places.

T2 sequence (P48736 whole entry): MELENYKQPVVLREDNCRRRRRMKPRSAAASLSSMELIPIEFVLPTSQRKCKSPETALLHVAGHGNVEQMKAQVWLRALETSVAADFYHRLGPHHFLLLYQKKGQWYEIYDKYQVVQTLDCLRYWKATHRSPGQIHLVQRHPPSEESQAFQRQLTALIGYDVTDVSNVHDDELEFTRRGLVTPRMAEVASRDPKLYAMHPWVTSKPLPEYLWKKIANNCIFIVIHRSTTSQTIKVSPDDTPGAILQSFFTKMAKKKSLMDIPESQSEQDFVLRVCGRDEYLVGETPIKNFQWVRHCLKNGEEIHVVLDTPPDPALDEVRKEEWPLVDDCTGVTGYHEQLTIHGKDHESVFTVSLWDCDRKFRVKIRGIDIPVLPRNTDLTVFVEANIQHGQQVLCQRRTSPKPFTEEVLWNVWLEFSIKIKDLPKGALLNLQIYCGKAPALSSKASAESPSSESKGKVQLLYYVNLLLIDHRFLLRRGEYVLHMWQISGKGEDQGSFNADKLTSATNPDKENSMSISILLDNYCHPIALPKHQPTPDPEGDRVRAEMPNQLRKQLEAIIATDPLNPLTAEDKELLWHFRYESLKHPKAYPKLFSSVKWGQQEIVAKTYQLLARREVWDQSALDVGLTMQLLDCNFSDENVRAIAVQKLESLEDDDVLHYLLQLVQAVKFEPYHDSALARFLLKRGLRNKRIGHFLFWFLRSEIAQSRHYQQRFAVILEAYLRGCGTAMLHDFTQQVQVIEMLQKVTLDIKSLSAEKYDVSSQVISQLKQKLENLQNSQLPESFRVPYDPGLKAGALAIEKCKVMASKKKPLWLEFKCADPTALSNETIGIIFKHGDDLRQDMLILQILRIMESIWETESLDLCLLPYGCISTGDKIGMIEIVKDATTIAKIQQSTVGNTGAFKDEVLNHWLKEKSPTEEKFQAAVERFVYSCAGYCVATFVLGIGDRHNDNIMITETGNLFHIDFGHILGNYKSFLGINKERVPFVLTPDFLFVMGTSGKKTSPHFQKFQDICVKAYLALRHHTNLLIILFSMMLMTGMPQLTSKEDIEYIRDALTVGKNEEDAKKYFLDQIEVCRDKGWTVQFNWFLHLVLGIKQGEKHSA
T1 sequence (P48736 whole entry): as above

For the compound `Cc1cc(-c2ccn3nc(N)c(C(=O)NC(C)C)c3n2)cc2c1C(=O)N([C@@H](C)C1CC1)C2` [Example 252], the IC50 is 100 to 1000 nM at PI3Kγ (setting [1]) and below 100 nM at PI3Kγ (p120γ) (Table 2, p120γ).

In the case of `C[C@H](CO)NC(=O)c1c(N)nn2ccc(-c3cc(Cl)c4c(c3)CN([C@@H](C)C3CC3)C4=O)nc12` [Example 163, 2-Amino-5-{7-chloro-2-[(1S)-1-cyclopropylethyl]-1-oxo-2,3-dihydro-1H-isoindol-5-yl}-N-[(2R)-1-hydroxypropan-2-yl]pyrazolo[1,5-a]pyrimidine-3-carboxamide], the IC50 at PI3Kγ (setting [2]) was below 100 nM; at PI3Kγ (p120γ) (Table 1, p120γ) it was below 100 nM.

With `Cc1cc(-c2ccn3nc(N)c(C(=O)N[C@H]4CC[C@@H](O)CC4)c3n2)cc2c1C(=O)N([C@@H](C)C1CC1)C2` [Example 205], the IC50 at PI3Kγ (setting [1]) is 100 to 1000 nM; on PI3Kγ (p120γ) (Table 2, p120γ), below 100 nM.

For `C[C@H](CO)NC(=O)c1c(N)nn2ccc(-c3cc4c(c(N(C)S(C)(=O)=O)c3)C(=O)N([C@@H](C)C3CC3)C4)nc12` [Example 408], the IC50 on PI3Kγ (setting [3]) is 100 to 1000 nM; on PI3Kγ (p120γ) (Table 6, p120γ) it was below 100 nM.

For `C[C@@H](C1CC1)N1Cc2cc(-c3ccn4nc(N)c(C(=O)NC5(C#N)CCC5)c4n3)cc(NS(C)(=O)=O)c2C1=O` [Example 81, 2-Amino-N-(1-cyanocyclobutyl)-5-{2-[(1S)-1-cyclopropylethyl]-7-methanesulfonamido-1-oxo-2,3-dihydro-1H-isoindol-5-yl}pyrazolo[1,5-a]pyrimidine-3-carboxamide], the IC50 at PI3Kγ (setting [2]) was below 100 nM; at PI3Kγ (p120γ) (Table 1, p120γ), below 100 nM.

As for `C[C@@H](C1CC1)N1Cc2cc(-c3ccn4nc(N)c(C(=O)N[C@@H](CO)C5CC5)c4n3)cc(OC(F)F)c2C1=O` [Example 159, 2-Amino-N-[(1R)-1-cyclopropyl-2-hydroxyethyl]-5-{2-[(1S)-1-cyclopropylethyl]-7-(difluoromethoxy)-1-oxo-2,3-dihydro-1H-isoindol-5-yl}pyrazolo[1,5-a]pyrimidine-3-carboxamide], the IC50 was below 100 nM at PI3Kγ (setting [2]) and below 100 nM at PI3Kγ (p120γ) (Table 1, p120γ).

For the compound `Cc1cc(-c2ccn3nc(N)c(C(=O)NC4COC4)c3n2)cc2c1C(=O)N(CC(C)(C)O)C2` [Example 320], the IC50 was 100 to 1000 nM on PI3Kγ (setting [1]) and below 100 nM on PI3Kγ (p120γ) (Table 2, p120γ).

On to `C[C@@H](C1CC1)N1Cc2cc(-c3ccn4nc(N)c(C(=O)N[C@@H](CO)C5CC5)c4n3)cc(NS(C)(=O)=O)c2C1=O` [Example 97, 2-Amino-N-((R)-1-cyclopropyl-2-hydroxyethyl)-5-(2-((S)-1-cyclopropylethyl)-7-(methylsulfonamido)-1-oxoisoindolin-5-yl)pyrazolo[1,5-a]pyrimidine-3-carboxamide], for which the IC50 is below 100 nM at PI3Kγ (setting [2]) and below 100 nM on PI3Kγ (p120γ) (Table 1, p120γ).

In the case of `Cc1cc(-c2ccn3nc(N)c(C(=O)N[C@@H]4CCC[C@H]4O)c3n2)cc2c1C(=O)N([C@@H](C)C1CC1)C2` [Example 8, 2-Amino-5-{2-[(1S)-1-cyclopropylethyl]-7-methyl-1-oxo-2,3-dihydro-1H-isoindol-5-yl}-N-[(1R,2R)-2-hydroxycyclopentyl]pyrazolo[1,5-a]pyrimidine-3-carboxamide], the IC50 at PI3Kγ (setting [2]) is below 100 nM; on PI3Kγ (p120γ) (Table 1, p120γ), below 100 nM.

As for `CC(C)[C@H](N1Cc2cc(-c3ccn4nc(N)c(C(=O)NC5CC5)c4n3)cc(NS(C)(=O)=O)c2C1=O)C(F)(F)F` [Example 402], the IC50 on PI3Kγ (setting [4]) was 100 to 1000 nM; on PI3Kγ (p120γ), below 100 nM.

Consider `Cc1cc(-c2ccn3nc(N)c(C(=O)N[C@@H]4CCNC4)c3n2)cc2c1C(=O)N([C@@H](C)C1CC1)C2` [Example 218], for which the IC50 at PI3Kγ (setting [1]) was 100 to 1000 nM; at PI3Kγ (p120γ) (Table 2, p120γ), below 100 nM.

As for `C[C@@H](C1CC1)N1Cc2cc(-c3ccn4nc(N)c(C(=O)Nc5cnccc5N)c4n3)cc(OC(F)(F)F)c2C1=O` [Example 422], the IC50 on PI3Kγ (setting [3]) was 100 to 1000 nM; at PI3Kγ (p120γ) (Table 6, p120γ), below 100 nM.

With `C[C@@H](C1CC1)N1Cc2cc(-c3ccn4nc(N)c(C(=O)Nc5ccccc5C(C)(C)O)c4n3)cc(OC(F)(F)F)c2C1=O` [Example 425], the IC50 is above 1000 nM on PI3Kγ (setting [3]) and below 100 nM at PI3Kγ (p120γ) (Table 6, p120γ).

Regarding `CC[C@H](N1Cc2cc(-c3ccn4nc(N)c(C(=O)N[C@H]5C[C@H](C(C)(C)O)C5)c4n3)cc(NS(C)(=O)=O)c2C1=O)C(F)(F)F` [Example 126, 2-Amino-5-{7-methanesulfonamido-1-oxo-2-[(2S)-1,1,1-trifluorobutan-2-yl]-2,3-dihydro-1H-isoindol-5-yl}-N-[trans-3-(2-hydroxypropan-2-yl)cyclobutyl]pyrazolo[1,5-a]pyrimidine-3-carboxamide], the IC50 at PI3Kγ (setting [2]) is below 100 nM; on PI3Kγ (p120γ) (Table 1, p120γ), below 100 nM.

Consider `CC(C)c1cc(-c2ccn3nc(N)c(C(=O)NC4CC4)c3n2)cc2c1C(=O)N([C@@H](C)C1CC1)C2` [Example 169, 2-Amino-N-cyclopropyl-5-{2-[(1S)-1-cyclopropylethyl]-1-oxo-7-(propan-2-yl)-2,3-dihydro-1H-isoindol-5-yl}pyrazolo[1,5-a]pyrimidine-3-carboxamide], for which the IC50 at PI3Kγ (setting [2]) is below 100 nM; on PI3Kγ (p120γ) (Table 1, p120γ), below 100 nM.

Take `CC[C@H](N1Cc2cc(-c3ccn4nc(N)c(C(=O)NC5CC5)c4n3)cc(Cl)c2C1=O)C(F)(F)F` [Example 449]: the IC50 was 100 to 1000 nM at PI3Kγ (setting [3]) and below 100 nM on PI3Kγ (p120γ) (Table 6, p120γ).

With `C[C@@H](C1CC1)N1Cc2cc(-c3ccn4nc(N)c(C(=O)N[C@H]5CCCNC5)c4n3)cc(C(F)(F)F)c2C1=O` [Example 356], the IC50 is 100 to 1000 nM at PI3Kγ (setting [5]) and below 100 nM on PI3Kγ (p120γ) (Table 3, p120γ).

Consider `C[C@@H](C1CC1)N1Cc2cc(-c3ccn4nc(N)c(C(=O)N[C@@H](CO)C5CC5)c4n3)cc(O[C@@H]3CCOC3)c2C1=O` [Example 147, 2-Amino-N-[(1R)-1-cyclopropyl-2-hydroxyethyl]-5-{2-[(1S)-1-cyclopropylethyl]-1-oxo-7-[(3R)-oxolan-3-yloxy]-2,3-dihydro-1H-isoindol-5-yl}pyrazolo[1,5-a]pyrimidine-3-carboxamide], for which the IC50 is below 100 nM on PI3Kγ (setting [2]) and below 100 nM on PI3Kγ (p120γ) (Table 1, p120γ).

In the case of `Cc1ccccc1NC(=O)c1c(N)nn2ccc(-c3cc4c(c(NS(C)(=O)=O)c3)C(=O)N([C@@H](C)C3CC3)C4)nc12` [Example 391], the IC50 was 100 to 1000 nM on PI3Kγ (setting [4]) and below 100 nM on PI3Kγ (p120γ).

As for `C[C@@H](C1CC1)N1Cc2cc(-c3ccn4nc(N)c(C(=O)Nc5ccc(C(C)(C)O)nc5)c4n3)cc(NS(C)(=O)=O)c2C1=O` [Example 103, 2-Amino-5-{2-[(1S)-1-cyclopropylethyl]-7-methanesulfonamido-1-oxo-2,3-dihydro-1H-isoindol-5-yl}-N-[6-(2-hydroxypropan-2-yl)pyridin-3-yl]pyrazolo[1,5-a]pyrimidine-3-carboxamide], the IC50 at PI3Kγ (setting [2]) was below 100 nM; on PI3Kγ (p120γ) (Table 1, p120γ) it was below 100 nM.

With `C[C@@H](C1CC1)N1Cc2cc(-c3ccn4nc(N)c(C(=O)N[C@H]5C[C@](C)(O)C5)c4n3)cc(S(C)(=O)=O)c2C1=O` [Example 444], the half-inhibitory concentration (IC50) on PI3Kγ (setting [3]) is 100 to 1000 nM; on PI3Kγ (p120γ) (Table 6, p120γ), below 100 nM.

Consider `COc1cncc(NC(=O)c2c(N)nn3ccc(-c4cc5c(c(C(F)(F)F)c4)C(=O)N([C@@H](C)C4CC4)C5)nc23)c1` [Example 355], for which the IC50 at PI3Kγ (setting [5]) was 100 to 1000 nM; on PI3Kγ (p120γ) (Table 3, p120γ) it was below 100 nM.

Take `Cc1cc(-c2ccn3nc(N)c(C(=O)NC(C)C4COC4)c3n2)cc2c1C(=O)N([C@@H](C)C1CC1)C2` (stereo partly shown) [Example 287]: the IC50 on PI3Kγ (setting [1]) lay within 100 to 1000 nM; on PI3Kγ (p120γ) (Table 2, p120γ) it was 100 to 1000 nM.

As usually defined, the IC50 is the point on the concentration scale where inhibition reaches its midpoint.

The record behind these values is US20230024302A1, “2,3,5-TRISUBSTITUTED PYRAZOLO[1,5-A]PYRIMIDINE COMPOUNDS” (Arcus Biosciences, Inc., priority 2019, published 2023).
